Measurements published in US11731986B2 (Sanford Burnham Prebys Medical Discovery Institute, priority 2017, dated 2023).

Target: T1, human LMPTP-A (Homo sapiens, UniProt P24666)
T1 sequence (P24666 1-158): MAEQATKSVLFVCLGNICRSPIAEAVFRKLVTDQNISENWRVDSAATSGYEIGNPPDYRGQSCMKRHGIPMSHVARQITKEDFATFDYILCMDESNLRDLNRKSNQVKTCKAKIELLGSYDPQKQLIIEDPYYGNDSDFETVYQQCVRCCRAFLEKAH
Assay: Enzyme Assay of Inhibition of LMPTP-A (phosphatase assay, OMFP or pNPP substrate)
Format: biochemical
Conditions: Bis-Tris pH 6.0, 37° C.
Method: Phosphatase assays were performed in buffer containing 50 mM Bis-Tris, pH 6.0, 1 mM DTT and 0.01% Triton X-100 at 37° C. For assays conducted with 3-O-methylfluorescein phosphate (OMFP) as substrate, fluorescence was monitored continuously at λex=485 and λem=525 nm. For assays conducted with para-nitrophenylphosphate (pNPP) as substrate, the reaction was stopped by addition of 2× reaction volume of 1 M NaOH, and absorbance was measured at 405 nm. IC50 values of compounds of Formula (I), (II), (III), or (IV) were determined from plots of inhibitor concentration versus percentage of enzyme activity. For inhibitor selectivity assays, each PTP was incubated with either 0.4 mM OMFP or 5 mM pNPP in the presence of 40 μM compound or DMSO. […] For the inhibitor reversibility assay, 50 nM human LMPTP-A was pre-incubated with 10 μM of compound of Formula (I), (II), (III), or (IV) or DMSO for 5 min. The enzyme was diluted 100× in phosphatase assay buffer containing 0.4 mM OMFP and fluorescence was measured at the indicated time points.

Row | SMILES | IC50
1 | O=C(NCCCN1CCCCC1)c1cc2ccc(-c3cc(NCCCN4CCCCC4)c4cnccc4n3)cc2s1 [N-(3-(piperidin-1-yl)propyl)-6-(4-(3-(piperidin-1-yl)propylamino)-1,6-naphthyridin-2-yl)benzo[b]thiophene-2-carboxamide] | ≤ 1000 nM
2 | O=C(NC1CCNCC1)c1cc2ccc(-c3cc(NCCCN4CCCCC4)c4cnccc4n3)cc2s1 [6-(4-(3-(piperidin-1-yl)propylamino)-1,6-naphthyridin-2-yl)-N-(piperidin-4-yl)benzo[b]thiophene-2-carboxamide] | ≤ 1000 nM
3 | CNc1cc(-c2ccc3[nH]c(C(=O)NCCCN4CCCCC4)nc3c2)nc2ccncc12 [5-(4-(methylamino)-1,6-naphthyridin-2-yl)-N-(3-(piperidin-1-yl)propyl)-1H-benzo[d]imidazole-2-carboxamide] | 1000 to 20000 nM
4 | CCNC1CCN(C(=O)CCc2ccc(-c3cc(NCCCN4CCCCC4)c4cnccc4n3)cc2)CC1 | ≤ 1000 nM
5 | NC1CCN(C(=O)CCc2ccc(-c3cc(NCCCN4CCCCC4)c4cnccc4n3)cc2)CC1 | ≤ 1000 nM
6 | O=C(COCc1ccc(-c2cc(NCCCN3CCCCC3)c3cnccc3n2)cc1)NCCCN1CCCCC1 [N-(3-(piperidin-1-yl)propyl)-2-((4-(4-((3-(piperidin-1-yl)propyl)amino)-1,6-naphthyridin-2-yl)benzyl)oxy)acetamide] | 1000 to 20000 nM
7 | CCNc1cc(-c2ccc3[nH]c(C(=O)NCCCN4CCCCC4)nc3c2)nc2ccncc12 [5-(4-(ethylamino)-1,6-naphthyridin-2-yl)-N-(3-(piperidin-1-yl)propyl)-1H-benzo[d]imidazole-2-carboxamide] | 1000 to 20000 nM
8 | CN1CCC(NC(=O)COCc2ccc(-c3cc(NCCCN4CCCCC4)c4cnccc4n3)cc2)CC1 [N-(1-methylpiperidin-4-yl)-2-((4-(4-((3-(piperidin-1-yl)propyl)amino)-1,6-naphthyridin-2-yl)benzyl)oxy)acetamide] | ≤ 1000 nM
9 | O=C(/C=C/c1ccc(-c2cc(NCCCN3CCCCC3)c3cnccc3n2)cc1)NCCCN1CCCCC1 [(E)-N-(3-(Piperidin-1-yl)propyl)-3-(4-(4-(3-(piperidin-1-yl)propylamino)-1,6-naphthyridin-2-yl)phenyl)acrylamide] | ≤ 1000 nM
10 | CCN1CCN(C(=O)c2cc3ccc(-c4cc(NCCCN5CCCCC5)c5cnccc5n4)cc3[nH]2)CC1 [(4-Ethylpiperazin-1-yl)(6-(4-(3-(piperidin-1-yl)propylamino)-1,6-naphthyridin-2-yl)-1H-indol-2-yl)methanone] | ≤ 1000 nM
11 | CN1CCCN(CCNC(=O)CCc2ccc(-c3cc(NCCCN4CCCCC4)c4cnccc4n3)cc2)CC1 [N-(2-(4-Methyl-1,4-diazepan-1-yl)ethyl)-3-(4-(4-(3-(piperidin-1-yl)propylamino)-1,6-naphthyridin-2-yl)phenyl)propanamide] | ≤ 1000 nM
12 | O=C(NC1CCNCC1)c1ccc(-c2cc(NCCCN3CCCCC3)c3cnccc3n2)c(C(F)(F)F)c1 [4-(4-((3-(piperidin-1-yl)propyl)amino)-1,6-naphthyridin-2-yl)-N-(piperidin-4-yl)-3-(trifluoromethyl)benzamide] | 1000 to 20000 nM
13 | CN1CCC(NC(=O)c2cc3ccc(-c4cc(NCCCN5CCCCC5)c5cnccc5n4)cc3s2)CC1 [N-(1-methylpiperidin-4-yl)-6-(4-(3-(piperidin-1-yl)propylamino)-1,6-naphthyridin-2-yl)benzo[b]thiophene-2-carboxamide] | ≤ 1000 nM
14 | CN1CCC(N/C(=N\O)c2ccc(-c3cc(NCCCN4CCCCC4)c4cncc(Cl)c4n3)cc2)CC1 [(Z)-4-(8-chloro-4-((3-(piperidin-1-yl)propyl)amino)-1,6-naphthyridin-2-yl)-N′-hydroxy-N-(1-methylpiperidin-4-yl)benzimidamide] | ≥ 20000 nM
15 | CCN1CCC(CNC(=O)/C=C/c2ccc(-c3cc(NCCCN4CCCCC4)c4cnccc4n3)cc2)CC1 [(E)-N-((1-Ethylpiperidin-4-yl)methyl)-3-(4-(4-(3-(piperidin-1-yl)propylamino)-1,6-naphthyridin-2-yl)phenyl)acrylamide] | 1000 to 20000 nM
16 | Cc1cncc2c(NCCCN3CCCCC3)cc(-c3ccc(C(=O)NC4CCN(C)CC4)cc3)nc12 [4-(8-Methyl-4-((3-(piperidin-1-yl)propyl)amino)-1,6-naphthyridin-2-yl)-N-(1-methylpiperidin-4-yl)benzamide] | ≥ 20000 nM
17 | CN1CCC(CCNC(=O)C#Cc2ccc(-c3cc(NCCCN4CCCCC4)c4cnccc4n3)cc2)CC1 [N-(2-(1-methylpiperidin-4-yl)ethyl)-3-(4-(4-((3-(piperidin-1-yl)propyl)amino)-1,6-naphthyridin-2-yl)phenyl)propiolamide] | 1000 to 20000 nM
18 | CN1CCC(Nc2cc(-c3ccc4c(c3)cc(C(=O)NCCCN3CCCCC3)n4C)nc3ccncc23)CC1 [1-Methyl-5-(4-((1-methylpiperidin-4-yl)amino)-1,6-naphthyridin-2-yl)-N-(3-(piperidin-1-yl)propyl)-1H-indole-2-carboxamide] | 1000 to 20000 nM

More lines, now with the values ahead:

Row | IC50 | SMILES
19 | ≤ 1000 nM | O=C(O)c1ccc(-c2cc(NCCCN3CCCCC3)c3cnccc3n2)cc1 [4-(4-((3-(piperidin-1-yl)propyl)amino)-1,6-naphthyridin-2-yl)benzoic acid]
20 | 1000 to 20000 nM | CN1CCC(Nc2cc(-c3ccc(C(=O)NCCCN4CCCCC4)cc3)nc3ccncc23)C1 (centres unmarked) [4-(4-((1-Methylpyrrolidin-3-yl)amino)-1,6-naphthyridin-2-yl)-N-(3-(piperidin-1-yl)propyl)benzamide]
21 | 1000 to 20000 nM | CCN(CC)C(=O)c1ccc(-c2cc(Nc3ccc(CN(C)C)cc3)c3cnccc3n2)cc1 [4-(4-(4-((Dimethylamino)methyl)phenylamino)-1,6-naphthyridin-2-yl)-N,N-diethylbenzamide]
22 | 1000 to 20000 nM | CCN(CC)C(=O)c1ccc(-c2cc(Nc3ccc(OC)cc3)c3cnccc3n2)cc1 [N,N-Diethyl-4-(4-(4-methoxyphenylamino)-1,6-naphthyridin-2-yl)benzamide]
23 | ≥ 20000 nM | CCN1CCN(C(=O)c2nc3cc(-c4cc(Nc5ccc(CN6CCCC6)cc5)c5cnccc5n4)ccc3[nH]2)CC1 [(4-ethylpiperazin-1-yl)(5-(4-((4-(pyrrolidin-1-ylmethyl)phenyl)amino)-1,6-naphthyridin-2-yl)-1H-benzo[d]imidazol-2-yl)methanone]
24 | 1000 to 20000 nM | CCN(CC)C(=O)c1ccc(-c2cc(NCCN3CCCCC3)c3cnccc3n2)cc1 [N,N-Diethyl-4-(4-((2-(piperidin-1-yl)ethyl)amino)-1,6-naphthyridin-2-yl)benzamide]
25 | ≥ 20000 nM | CCN(CC)C(=O)c1ccc(-c2cc(NCCCN3CCCCC3)c3cccnc3n2)cc1 [N,N-diethyl-4-(4-(3-(piperidin-1-yl)propylamino)-1,8-naphthyridin-2-yl)benzamide]
26 | 1000 to 20000 nM | O=C(NCCCN1CCCCC1)c1ccc(-c2cc(NC3CCNC3)c3cnccc3n2)cc1 (centres unmarked) [N-(3-(Piperidin-1-yl)propyl)-4-(4-(pyrrolidin-3-ylamino)-1,6-naphthyridin-2-yl)benzamide]
27 | ≤ 1000 nM | CCN(CC)C(=O)CCc1ccc(-c2cc(NC3CCN(C)CC3)c3cnccc3n2)cc1 [N,N-Diethyl-3-(4-(4-(1-methylpiperidin-4-ylamino)-1,6-naphthyridin-2-yl)phenyl)propanamide]
28 | ≤ 1000 nM | CCOC(=O)c1cc2cc(-c3cc(NCCCN4CCCCC4)c4cnccc4n3)ccc2n1C [ethyl 1-methyl-5-(4-((3-(piperidin-1-yl)propyl)amino)-1,6-naphthyridin-2-yl)-1H-indole-2-carboxylate]
29 | 1000 to 20000 nM | CCN(CC)C(=O)c1ccc(-c2cc(NCCN3CCN(S(C)(=O)=O)CC3)c3cnccc3n2)cc1 [N,N-diethyl-4-(4-(2-(4-(methylsulfonyl)piperazin-1-yl)ethylamino)-1,6-naphthyridin-2-yl)benzamide]
30 | 1000 to 20000 nM | CCN(CC)C(=O)c1ccc(-c2cc(NCCN3CCS(=O)(=O)CC3)c3cnccc3n2)cc1 [4-(4-((2-(1,1-Dioxidothiomorpholino)ethyl)amino)-1,6-naphthyridin-2-yl)-N,N-diethylbenzamide]
31 | 1000 to 20000 nM | CCN(CC)C(=O)c1ccc(-c2cc(NC3CCN(C)CC3)c3cnccc3n2)cc1 [N,N-Diethyl-4-(4-((1-methylpiperidin-4-yl)amino)-1,6-naphthyridin-2-yl)benzamide]
32 | 1000 to 20000 nM | CNc1cc(-c2ccc3c(c2)cc(C(=O)NC2CCN(C)CC2)n3C)nc2ccncc12 [1-methyl-5-(4-(methylamino)-1,6-naphthyridin-2-yl)-N-(1-methylpiperidin-4-yl)-1H-indole-2-carboxamide]
33 | ≤ 1000 nM | CCNc1cc(-c2ccc3c(c2)cc(C(=O)NC2CCN(C)CC2)n3C)nc2ccncc12 [5-(4-(ethylamino)-1,6-naphthyridin-2-yl)-1-methyl-N-(1-methylpiperidin-4-yl)-1H-indole-2-carboxamide]
34 | ≥ 20000 nM | CCN(CC)C(=O)c1ccc(-c2cc(NCCCN3CCCCC3)c3ncccc3n2)cc1 [N,N-diethyl-4-(4-(3-(piperidin-1-yl)propylamino)-1,5-naphthyridin-2-yl)benzamide]
35 | ≥ 20000 nM | CN1CCC(NC(=O)CCOc2ccc(-c3cc(NCCCN4CCCCC4)c4cnccc4n3)cc2)CC1 [N-(1-methylpiperidin-4-yl)-3-(4-(4-((3-(piperidin-1-yl)propyl)amino)-1,6-naphthyridin-2-yl)phenoxy)propanamide]
